In patent US4442118A, “Aldose reductase inhibition by 1-(4-chlorobenzoyl)-5-methoxy-2-methyl-1H-indole-3-acetic acid” (Ayerst, McKenna & Harrison, Inc., priority 1981, dated 1984):

Molecular target: lens aldose reductase (Bos taurus, UniProt P16116)
Assay: in vitro aldose reductase inhibition test (modified Hayman and Kinoshita procedure)
Assay type: biochemical, bovine
Description: In the present case the procedure of Hayman and Kinoshita is modified in that the final chromatography step is omitted in the preparation of the enzyme from bovine lens.
The following results were obtained when indomethacin was evaluated in the above in vitro test: […]

COc1ccc2c(c1)c(CC(=O)O)c(C)n2C(=O)c1ccc(Cl)cc1 [Indomethacin, 1-(4-Chlorobenzoyl)-5-methoxy-2-methyl-1H-indole-3-acetic acid]
inhibitor of lens aldose reductase (in words): potent inhibitor of lens aldose reductase
